Experimental data taken from ChEMBL document CHEMBL1201862, “PubChem BioAssay data set” (2004).
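Tested at 5 concentrations; 48 h exposure; 96-well plates; endpoints linearly interpolated, else capped at highest concentration. The concentration for 50% growth inhibition is given as GI50.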 Active and inactive are the calls of the source. No stated cut-off is given here; in the data, active = GI50 up to about 1.1 µM and inactive = higher.

Assays:
Assay in all cases: DTP human tumour cell line panel, 48 h
[1] = test system: MOLT-4
[2] = test system: SK-OV-3
[3] = test system: NCI-H522
[4] = test system: CCRF-CEM
[5] = test system: HOP-92
[6] = test system: RXF 393
[7] = test system: MCF7
[8] = test system: ACHN
[9] = test system: K562
[10] = test system: HCT-116
[11] = test system: UO-31
[12] = test system: M14
[13] = test system: A549
[14] = test system: OVCAR-5
[15] = test system: CAKI-1
[16] = test system: MDA-N
[17] = test system: SK-MEL-2
[18] = test system: COLO 205
[19] = test system: MDA-MB-231
[20] = test system: HCC 2998
[21] = test system: IGROV-1
[22] = test system: LOX IMVI
[23] = test system: EKVX
[24] = test system: DU-145
[25] = test system: MDA-MB-435
[26] = test system: NCI-H23
[27] = test system: TK-10
[28] = test system: Hs-578T
[29] = test system: NCI-H226
[30] = test system: A498
[31] = test system: SF-268
[32] = test system: HL-60
[33] = test system: SW-620
[34] = test system: U-251
[35] = test system: UACC-257
[36] = test system: NCI-H460
[37] = test system: SR
[38] = test system: KM12
[39] = test system: HCT-15
[40] = test system: 786-0
[41] = test system: OVCAR-3
[42] = test system: SNB-19
[43] = test system: NCI/ADR-RES
[44] = test system: Malme-3M
[45] = test system: SF-295
[46] = test system: SK-MEL-5
[47] = test system: PC-3
[48] = test system: SF-539
[49] = test system: HT-29
[50] = test system: SK-MEL-28
[51] = test system: SN12C
[52] = test system: T47D
[53] = test system: HOP-62
[54] = test system: RPMI-8226
[55] = test system: UACC-62
[56] = test system: SNB-75
[57] = test system: OVCAR-8
[58] = test system: OVCAR-4

With O=C(c1cccs1)N1CCc2ccccc2C1 the GI50 [1] was > 100 µM (inactive), the GI50 [2] was > 100 µM (inactive) and the GI50 [3] was > 100 µM (inactive). For the same compound, the GI50 [4] was 40.4 µM (inactive), the GI50 [5] was 26.6 µM (inactive) and the GI50 [6] was > 100 µM (inactive). The GI50 [7] was > 100 µM (inactive), the GI50 [8] was > 100 µM (inactive) and the GI50 [9] was 39.1 µM (inactive). The GI50 [10] was 38.2 µM (inactive), the GI50 [11] was > 100 µM (inactive) and the GI50 [12] was > 100 µM (inactive). For the same compound, the GI50 [13] was > 100 µM (inactive), the GI50 [14] was > 100 µM (inactive) and the GI50 [15] was > 100 µM (inactive). The GI50 [16] was 32.2 µM (inactive), the GI50 [17] was > 100 µM (inactive) and the GI50 [18] was > 100 µM (inactive). For the same compound, the GI50 [19] was > 100 µM (inactive), the GI50 [20] was > 100 µM (inactive) and the GI50 [21] was > 100 µM (inactive). For the same compound, the GI50 [22] was > 100 µM (inactive), the GI50 [23] was 97.1 µM (inactive) and the GI50 [24] was > 100 µM (inactive). For the same compound, the GI50 [25] was 33.3 µM (inactive), the GI50 [26] was > 100 µM (inactive) and the GI50 [27] was > 100 µM (inactive). The GI50 [28] was 85.5 µM (inactive), the GI50 [29] was > 100 µM (inactive) and the GI50 [30] was > 100 µM (inactive). The GI50 [31] was > 100 µM (inactive), the GI50 [32] was 30.7 µM (inactive) and the GI50 [33] was > 100 µM (inactive). The GI50 [34] was > 100 µM (inactive), the GI50 [35] was > 100 µM (inactive) and the GI50 [36] was > 100 µM (inactive). For the same compound, the GI50 [37] was 97.5 µM (inactive), the GI50 [38] was 74.8 µM (inactive) and the GI50 [39] was > 100 µM. The GI50 [40] was > 100 µM (inactive), the GI50 [41] was > 100 µM (inactive) and the GI50 [42] was > 100 µM (inactive). For the same compound, the GI50 [43] was 42.1 µM (inactive), the GI50 [44] was > 100 µM (inactive) and the GI50 [45] was > 100 µM (inactive). The GI50 [46] was 62.4 µM (inactive), the GI50 [47] was > 100 µM (inactive) and the GI50 [48] was > 100 µM (inactive). The GI50 [49] was > 100 µM (inactive), the GI50 [50] was > 100 µM (inactive) and the GI50 [51] was > 100 µM (inactive). The GI50 [52] was > 100 µM (inactive), the GI50 [53] was > 100 µM (inactive) and the GI50 [54] was 85.9 µM (inactive). The GI50 [55] was > 100 µM (inactive).
In the case of CSc1cc(Cl)c(C)cc1S(=O)(=O)NC(=O)NNc1cccc(C(F)(F)F)n1, the GI50 [1] is reported as 20.9 µM (inactive), the GI50 [2] is reported as > 100 µM (inactive) and the GI50 [56] is reported as 91.8 µM (inactive). For the same compound, the GI50 [3] was > 100 µM (inactive), the GI50 [4] was > 100 µM (inactive) and the GI50 [6] was > 100 µM (inactive). The GI50 [7] was > 100 µM (inactive), the GI50 [8] was > 100 µM (inactive) and the GI50 [9] was > 100 µM (inactive). The GI50 [10] was > 100 µM (inactive), the GI50 [57] was > 100 µM (inactive) and the GI50 [12] was > 100 µM (inactive). For the same compound, the GI50 [13] was > 100 µM (inactive), the GI50 [14] was > 100 µM (inactive) and the GI50 [15] was > 100 µM (inactive). The GI50 [16] was > 100 µM (inactive), the GI50 [17] was > 100 µM (inactive) and the GI50 [18] was > 100 µM (inactive). For the same compound, the GI50 [19] was > 100 µM (inactive), the GI50 [20] was > 100 µM (inactive) and the GI50 [21] was > 100 µM (inactive). For the same compound, the GI50 [22] was > 100 µM (inactive), the GI50 [23] was > 100 µM (inactive) and the GI50 [24] was > 100 µM (inactive). The GI50 [25] was > 100 µM (inactive), the GI50 [28] was > 100 µM (inactive) and the GI50 [29] was > 100 µM (inactive). For the same compound, the GI50 [30] was > 100 µM (inactive), the GI50 [31] was > 100 µM (inactive) and the GI50 [33] was > 100 µM (inactive). The GI50 [34] was > 100 µM (inactive), the GI50 [36] was > 100 µM (inactive) and the GI50 [37] was > 100 µM (inactive). The GI50 [58] was > 100 µM (inactive), the GI50 [38] was > 100 µM (inactive) and the GI50 [39] was > 100 µM. For the same compound, the GI50 [40] was > 100 µM (inactive), the GI50 [41] was > 100 µM (inactive) and the GI50 [42] was > 100 µM (inactive). The GI50 [43] was > 100 µM (inactive), the GI50 [44] was > 100 µM (inactive) and the GI50 [45] was > 100 µM (inactive). The GI50 [46] was > 100 µM (inactive), the GI50 [47] was > 100 µM (inactive) and the GI50 [48] was 51.8 µM (inactive). The GI50 [49] was > 100 µM (inactive), the GI50 [50] was > 100 µM (inactive) and the GI50 [51] was > 100 µM (inactive). The GI50 [52] was > 100 µM (inactive) and the GI50 [53] was > 100 µM (inactive).
With Cc1nc2cccc(F)c2c(=O)n1-c1nnc(C(F)(F)F)s1 the GI50 [1] was > 10 µM (inactive), the GI50 [2] was > 10 µM (inactive) and the GI50 [56] was > 10 µM (inactive). The GI50 [3] was > 10 µM (inactive), the GI50 [4] was > 10 µM (inactive) and the GI50 [5] was > 10 µM (inactive). The GI50 [6] was > 10 µM (inactive), the GI50 [7] was > 10 µM (inactive) and the GI50 [8] was > 10 µM (inactive). For the same compound, the GI50 [9] was > 10 µM (inactive), the GI50 [10] was > 10 µM (inactive) and the GI50 [11] was > 10 µM (inactive). The GI50 [57] was > 10 µM (inactive), the GI50 [12] was > 10 µM (inactive) and the GI50 [13] was > 10 µM (inactive). The GI50 [14] was > 10 µM (inactive), the GI50 [15] was > 10 µM (inactive) and the GI50 [16] was > 10 µM (inactive). For the same compound, the GI50 [17] was > 10 µM (inactive), the GI50 [18] was > 10 µM (inactive) and the GI50 [19] was > 10 µM (inactive). For the same compound, the GI50 [20] was > 10 µM (inactive), the GI50 [21] was > 10 µM (inactive) and the GI50 [22] was > 10 µM (inactive). For the same compound, the GI50 [23] was > 10 µM (inactive), the GI50 [24] was > 10 µM (inactive) and the GI50 [25] was > 10 µM (inactive). For the same compound, the GI50 [26] was > 10 µM (inactive), the GI50 [27] was > 10 µM (inactive) and the GI50 [28] was > 10 µM (inactive). The GI50 [29] was > 10 µM (inactive), the GI50 [31] was > 10 µM (inactive) and the GI50 [32] was > 10 µM (inactive). The GI50 [33] was > 10 µM (inactive), the GI50 [34] was > 10 µM (inactive) and the GI50 [35] was > 10 µM (inactive). For the same compound, the GI50 [36] was > 10 µM (inactive), the GI50 [37] was > 10 µM (inactive) and the GI50 [58] was > 10 µM (inactive). For the same compound, the GI50 [38] was > 10 µM (inactive), the GI50 [39] was > 10 µM and the GI50 [40] was > 10 µM (inactive). For the same compound, the GI50 [41] was > 10 µM (inactive), the GI50 [42] was > 10 µM (inactive) and the GI50 [43] was > 10 µM (inactive). For the same compound, the GI50 [45] was > 10 µM (inactive), the GI50 [46] was > 10 µM (inactive) and the GI50 [47] was > 10 µM (inactive). The GI50 [48] was > 10 µM (inactive), the GI50 [49] was > 10 µM (inactive) and the GI50 [50] was > 10 µM (inactive). For the same compound, the GI50 [51] was > 10 µM (inactive), the GI50 [52] was > 10 µM (inactive) and the GI50 [53] was > 10 µM (inactive). The GI50 [54] was > 10 µM (inactive) and the GI50 [55] was > 10 µM (inactive).
